In ChEMBL document CHEMBL1151784, “Antibiotic evaluation and in vivo analysis of alkynyl Coenzyme A antimetabolites in Escherichia coli” (2008):
In brackets after ≈: the same amount, converted by molar mass.

Assays:
Assay type in all cases: functional
Details in all cases: K12, 24 h
Escherichia coli [1] = assay: Antibacterial activity against Escherichia coli K12 in M9 minimal medium after 24 hrs by broth dilution method in presence of pantothenate
Escherichia coli [2] = assay: Antibacterial activity against Escherichia coli K12 in M9 minimal medium after 24 hrs by broth dilution method in presence of beta-alanine
Escherichia coli [3] = assay: Antibacterial activity against Escherichia coli K12 in tryptone broth after 24 hrs by broth dilution method
Escherichia coli [4] = assay: Antibacterial activity against Escherichia coli K12 in M9 minimal medium after 24 hrs by broth dilution method

Structure (SMILES) | MIC (Escherichia coli [1]) | MIC (Escherichia coli [2]) | MIC (Escherichia coli [3]) | MIC (Escherichia coli [4])
CCOC(=O)NCCNC(=O)CCNC(=O)[C@H](O)C(C)(C)CO |  |  | > 500 µM | > 500 µM
C#CCCCCNC(=O)CCNC(=O)[C@H](O)C(C)(C)CO |  |  | > 500 µM | 500 µM (≈ 149 µg/mL)
C=CCNC(=O)CCNC(=O)[C@H](O)C(C)(C)CO | 250 µM | 125 µM | > 500 µM | 3 µM (≈ 0.775 µg/mL)
CCC(=O)NCCNC(=O)CCNC(=O)[C@H](O)C(C)(C)CO |  |  | > 500 µM | > 500 µM
C#CCCNC(=O)CCNC(=O)[C@H](O)C(C)(C)CO | > 500 µM | > 500 µM | > 500 µM | 7.5 µM (≈ 2.03 µg/mL)
C#CCNC(=O)CCNC(=O)[C@H](O)C(C)(C)CO | > 500 µM | > 500 µM | > 500 µM | 4 µM (≈ 1.03 µg/mL)
CCC(=O)OCCNC(=O)CCNC(=O)[C@H](O)C(C)(C)CO |  |  | > 500 µM | 500 µM (≈ 159 µg/mL)
C=CC(=O)NCCNC(=O)CCNC(=O)[C@H](O)C(C)(C)CO |  |  | > 500 µM | 500 µM (≈ 158 µg/mL)

The remaining lines, values ahead:

MIC (Escherichia coli [1]) | MIC (Escherichia coli [2]) | MIC (Escherichia coli [3]) | MIC (Escherichia coli [4]) | Structure (SMILES)
> 500 µM | > 500 µM | > 500 µM | 15 µM (≈ 4.27 µg/mL) | C#CCCCNC(=O)CCNC(=O)[C@H](O)C(C)(C)CO
500 µM | 250 µM | 500 µM (≈ 130 µg/mL) | 1 µM (≈ 0.26 µg/mL) | CCCNC(=O)CCNC(=O)[C@H](O)C(C)(C)CO
500 µM | 250 µM | 50 µM (≈ 14.4 µg/mL) | 6 µM (≈ 1.73 µg/mL) | CCCCCNC(=O)CCNC(=O)[C@H](O)C(C)(C)CO
 |  | > 500 µM | > 500 µM | CC(C)(CO)[C@@H](O)C(=O)NCCC(=O)NCCN=[N+]=[N-]
 |  | > 500 µM | > 500 µM | C#CC(=O)NCCNC(=O)CCNC(=O)[C@H](O)C(C)(C)CO
 |  | > 500 µM | 500 µM (≈ 92.6 µg/mL) | C#CCNC(=O)[C@H](O)C(C)(C)CO
 |  | > 500 µM | > 500 µM | C#CCCC(=O)NCCNC(=O)CCNC(=O)[C@H](O)C(C)(C)CO
